A short description of experiment [1]: Prospective study of BaroPacing (raising right atrial pacing rate) in 14 subjects with hypertension and dual chamber pacemakers. The settings on record: 8 patients taking either Metoprolol or Carvedilol vs 6 subjects not taking any beta blockers (p<0.004 in the latter). Format: in vivo, human. The text has this:
I have prospectively studied 14 subjects with hypertension and dual chamber pacemakers, 6 not taking any beta blockers, and 8 taking either metoprolol or carvedilol. […] PressurePacing or BaroPacing is defined to include the algorithmically controlled pacing methodologies and programmable pacemakers as disclosed in PCT/US19/59703; PCT/US20/025447; PCT/US21/42622; and US Provisional filing 63/123,951, each and all incorporated herein by reference.

A short description of experiment [2]: Published retrospective and prospective study of BaroPacing by BaroPace's clinical research team. The settings on record: current treatment with the beta blocker. Format: in vivo, human. The text has this:
Based on the observation that pacemaker implant in patients with drug resistant hypertension (DRH) and heart failure with preserved ejection fraction (HFpEF) lowers blood pressure and improves clinical outcomes, BaroPace, Inc. is developing technology to treat drug resistant hypertension and (HFpEF) by regulating cardiac pacemakers in real time in response to blood pressure (BaroPacing™). […] The BaroPacing research model offers a now-proven cost efficient means of screening ISA drugs such as pindolol and acebutolol to test this hypothesis. If proven true, besides a new patentable indication, such results could lead to a treatment paradigm shift and clinical revitalization of ISA beta blockers.

Turning to `COc1ccccc1OCCNCC(O)COc1cccc2[nH]c3ccccc3c12` (stereo not drawn) [Carvedilol], the “significant lowering of systolic blood pressure (>10 mmHg) by BaroPacing” value in experiment [1] is reported as “lost”. Moreover, in experiment [2], the “beneficial blood pressure lowering effects of BaroPacing” value is “substantially blunts” and the “improvement in New York Heart Association Class seen in HFpEF with BaroPacing” value is recorded as “substantially blunts”.
As to `COCCc1ccc(OCC(O)CNC(C)C)cc1` (stereo not drawn) [Metoprolol, metoprolol], the “significant lowering of systolic blood pressure (>10 mmHg) by BaroPacing” value in experiment [1] was “lost”. In experiment [2], the “beneficial blood pressure lowering effects of BaroPacing” value was “substantially blunts” and the “improvement in New York Heart Association Class seen in HFpEF with BaroPacing” value was “substantially blunts”.

Values taken from US12722014B2, “Method of treating drug resistant hypertension and heart failure with preserved ejection fraction by combined drug treatment with baropacing and beta blockers” (BaroPace, Inc., priority 2020, dated 2026).
